Data on 31 compounds can be found in ChEMBL document CHEMBL4715854, “Discovery of Roblitinib (FGF401) as a Reversible-Covalent Inhibitor of the Kinase Activity of Fibroblast Growth Factor Receptor 4” (J Med Chem, 2020).

Molecules are shown by their SMILES.

Data set [1] can be described thus: Permeability of the compound in human Caco-2 cells assessed as compound recovery at 10 uM measured after 2 hrs by LC/MS/MS analysis. Format: ADME, cell-based. The following applies: read-out: Drug recovery. In general terms: Caco-2 monolayers are a common model of the intestinal barrier.
The nature of data set [2]: Drug metabolism in rat liver microsome assessed as reduction of aldehyde group at 10 mM measured after 15 mins in presence of NADPH by LC-MS analysis. Format: ADME. The following applies: microsomes, 10000 µM.
Data set [3] in a line: Drug metabolism in human liver microsome assessed as reduction of aldehyde group at 10 mM measured after 15 mins in presence of NADPH by LC-MS analysis. The following applies: microsomes, 10000 µM. It counts as ADME. A general note: Liver microsomes are vesicles of endoplasmic reticulum, rich in cytochrome P450 enzymes.

As to `COCCNc1cc(NC(=O)N2CCCc3cc(N4CCOCC4=O)c(C=O)nc32)ncc1C#N`, the recovery at 2 h, 10 µM in data set [1] was under 10%. Also, the Drug metabolism entry in data set [2] and in data set [3] was “Metabolite_Detected” each time.

Regarding `COCCNc1cc(NC(=O)N(C)c2cccc(C=O)n2)ncc1C#N`, the recovery at 2 h, 10 µM in data set [1] is under 10%. The Drug metabolism entry in data set [2] and in data set [3] was “Metabolite_Detected” in each case.

For the compound `COCCOc1cc(NC(=O)N2CCCc3ccc(C=O)nc32)ncc1C#N`, the recovery at 2 h, 10 µM in data set [1] is under 10%. For the same compound, the Drug metabolism result in data set [2] and in data set [3] was “Metabolite_Detected” each time.

Consider `COc1cc2c(nc1C=O)N(C(=O)Nc1ccc(C#N)cn1)CCC2`, for which the recovery at 2 h, 10 µM in data set [1] was under 10%. The Drug metabolism entry in data set [2] and in data set [3] was “Metabolite_Detected” each time.

As for `N#Cc1ccc(NC(=O)N2CCCc3cc(C4CC4)c(C=O)nc32)nc1`, the recovery at 2 h, 10 µM in data set [1] was under 10%. The Drug metabolism entry in data set [2] and in data set [3] was “Metabolite_Detected” in each case.

As for `C=CC(=O)Nc1ccccc1C(=O)Nc1cc(CCc2cc(OC)cc(OC)c2)[nH]n1`, in data set [1], the recovery at 2 h, 10 µM is under 10%. Further, the Drug metabolism entry in data set [2] and in data set [3] was “Metabolite_Detected” in each case.

For the compound `CC(C)Oc1cc(NC(=O)N2CCCc3ccc(C=O)nc32)ncc1C#N`, in data set [1], the recovery at 2 h, 10 µM was under 10%. Further, the Drug metabolism entry in data set [2] and in data set [3] was “Metabolite_Detected” each time.

Turning to `N#Cc1cnc(NC(=O)N2CCCc3cc(CO)c(C=O)nc32)cc1O[C@H]1CCOC1`, in data set [1], the recovery at 2 h, 10 µM is under 10%. For the same compound, the Drug metabolism entry in data set [2] and in data set [3] was “Metabolite_Detected” each time.

For `COCCOc1cc(NC(=O)N2CCCc3cc(C(F)(F)F)c(C=O)nc32)ncc1C#N`, the recovery at 2 h, 10 µM in data set [1] is under 10%. Besides, the Drug metabolism entry in data set [2] and in data set [3] was “Metabolite_Detected” in each case.

Consider `O=Cc1nc2c(C(=O)Nc3ccc(C(F)(F)F)cn3)cccc2cc1O`, for which, in data set [1], the recovery at 2 h, 10 µM was under 10%. Besides, the Drug metabolism result in data set [2] and in data set [3] was “Metabolite_Detected” throughout.

Regarding `COCCNc1cc(NC(=O)N2CCCc3cc(-c4ccnn4C)c(C=O)nc32)ncc1C#N`, the recovery at 2 h, 10 µM in data set [1] is under 10%. Moreover, the Drug metabolism entry in data set [2] and in data set [3] was “Metabolite_Detected” each time.

On to `COCCOc1cc(NC(=O)N2CCCc3cc(COC)c(C=O)nc32)ncc1C#N`, for which the recovery at 2 h, 10 µM in data set [1] is under 10%. Moreover, the Drug metabolism entry in data set [2] and in data set [3] was “Metabolite_Detected” each time.

With `N#Cc1ccc(NC(=O)N2CCCCc3ccc(C=O)nc32)nc1`, the recovery at 2 h, 10 µM in data set [1] was under 10%. Besides, the Drug metabolism result in data set [2] and in data set [3] was “Metabolite_Detected” in each case.

For `COCCNc1cc(NC(=O)N2CCCc3cc(C4CCOCC4)c(C=O)nc32)ncc1C#N`, the recovery at 2 h, 10 µM in data set [1] is under 10%. The Drug metabolism result in data set [2] and in data set [3] was “Metabolite_Detected” in each case.

In the case of `CC1(O)CCN(c2cc(NC(=O)N3CCCc4ccc(C=O)nc43)ncc2C#N)CC1`, in data set [1], the recovery at 2 h, 10 µM is under 10%. In addition, the Drug metabolism result in data set [2] and in data set [3] was “Metabolite_Detected” in each case.

With `N#Cc1ccc(NC(=O)N2CCCc3cc(CO)c(C=O)nc32)nc1`, the recovery at 2 h, 10 µM in data set [1] is under 10%. Further, the Drug metabolism entry in data set [2] and in data set [3] was “Metabolite_Detected” throughout.

Take `COCCOc1cc(NC(=O)N2CCCc3cc(C(F)F)c(C=O)nc32)ncc1C#N`: in data set [1], the recovery at 2 h, 10 µM was under 10%. For the same compound, the Drug metabolism entry in data set [2] and in data set [3] was “Metabolite_Detected” in each case.

Turning to `N#Cc1ccc(NC(=O)N2CCCc3cc(Cl)c(C=O)nc32)nc1`, in data set [1], the recovery at 2 h, 10 µM was under 10%. Further, the Drug metabolism entry in data set [2] and in data set [3] was “Metabolite_Detected” in each case.

For `CCN1CCN(c2ccc(Nc3cc(N(C)C(=O)Nc4c(Cl)c(OC)cc(OC)c4Cl)ncn3)cc2)CC1` [INFIGRATINIB], in data set [1], the recovery at 2 h, 10 µM was under 10%. Moreover, the Drug metabolism entry in data set [2] and in data set [3] was “Metabolite_Detected” in each case.

With `O=Cc1ccc2c(n1)N(C(=O)Nc1ccc(C(F)(F)F)cn1)CCO2`, the recovery at 2 h, 10 µM in data set [1] is under 10%. Besides, the Drug metabolism result in data set [2] and in data set [3] was “Metabolite_Detected” in each case.

As to `N#Cc1cnc(NC(=O)N2CCCc3ccc(C=O)nc32)cn1`, in data set [1], the recovery at 2 h, 10 µM was under 10%. Further, the Drug metabolism result in data set [2] and in data set [3] was “Metabolite_Detected” throughout.

With `N#Cc1cnc(NC(=O)N2CCCc3cc(CO)c(C=O)nc32)cc1O[C@@H]1CCOC1`, in data set [1], the recovery at 2 h, 10 µM is under 10%. Moreover, the Drug metabolism result in data set [2] and in data set [3] was “Metabolite_Detected” throughout.

In the case of `Cc1cc2c(nc1C=O)N(C(=O)Nc1ccc(C#N)cn1)CCC2`, the recovery at 2 h, 10 µM in data set [1] is under 10%. Besides, the Drug metabolism result in data set [2] and in data set [3] was “Metabolite_Detected” each time.

Consider `COCCNc1cc(NC(=O)N2CCCc3cc(C4CCN(C5COC5)CC4)c(C=O)nc32)ncc1C#N`, for which the recovery at 2 h, 10 µM in data set [1] was under 10%. The Drug metabolism result in data set [2] and in data set [3] was “Metabolite_Detected” in each case.

As for `N#Cc1ccc(NC(=O)N2CCCc3cc(N)c(C=O)nc32)nc1`, the recovery at 2 h, 10 µM in data set [1] is under 10%. Moreover, the Drug metabolism result in data set [2] and in data set [3] was “Metabolite_Detected” each time.

With `CN(C)Cc1cc2c(nc1C=O)N(C(=O)Nc1ccc(C#N)cn1)CCC2`, the recovery at 2 h, 10 µM in data set [1] is under 10%. Moreover, the Drug metabolism result in data set [2] and in data set [3] was “Metabolite_Detected” each time.

Take `COCCOc1cc(NC(=O)N2CCCc3cc(Br)c(C=O)nc32)ncc1C#N`: in data set [1], the recovery at 2 h, 10 µM is under 10%. The Drug metabolism result in data set [2] and in data set [3] was “Metabolite_Detected” throughout.

In the case of `CC(C)Oc1cc(NC(=O)N2CCc3ccc(C=O)nc32)ncc1C#N`, in data set [1], the recovery at 2 h, 10 µM was under 10%. The Drug metabolism entry in data set [2] and in data set [3] was “Metabolite_Detected” in each case.

For `COCCNc1cc(NC(=O)N(CCOC)c2cccc(C=O)n2)ncc1C#N`, in data set [1], the recovery at 2 h, 10 µM was under 10%. For the same compound, the Drug metabolism result in data set [2] and in data set [3] was “Metabolite_Detected” each time.

Turning to `CC(C)COc1cc(N2CCC(N(C)C)CC2)ccc1Nc1ncc(C#N)c(N[C@H]2[C@@H](C(N)=O)[C@@H]3C=C[C@H]2C3)n1`, the recovery at 2 h, 10 µM in data set [1] was under 10%. In addition, the Drug metabolism entry in data set [2] and in data set [3] was “Metabolite_Detected” throughout.

With `COCCNc1cc(NC(=O)N2CCCc3cc(-c4cccnc4)c(C=O)nc32)ncc1C#N`, the recovery at 2 h, 10 µM in data set [1] is under 10%. Further, the Drug metabolism result in data set [2] and in data set [3] was “Metabolite_Detected” in each case.
